Laboratory results taken from PubChem BioAssay (NCI).
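These data come from cells grown in 96-well plates and exposed to compound for 48 hours at five concentrations. GI50 is the concentration that inhibits growth by half. TGI marks complete inhibition of growth.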

Key:
Assay in all cases: inhibition of tumour cell growth, NCI panel, 48 h
[1] = tested on: 786-0 renal
[2] = tested on: A498 renal
[3] = tested on: A549 NSCLC
[4] = tested on: ACHN renal
[5] = tested on: BT-549 breast
[6] = tested on: CAKI-1 renal
[7] = tested on: CCRF-CEM leukemia
[8] = tested on: COLO 205 colon
[9] = tested on: DU-145 prostate
[10] = tested on: EKVX NSCLC
[11] = tested on: HCC-2998 colon
[12] = tested on: HCT-116 colon
[13] = tested on: HCT-15 colon
[14] = tested on: HL-60(TB) leukemia
[15] = tested on: HOP-62 NSCLC
[16] = tested on: HOP-92 NSCLC
[17] = tested on: HS 578T breast
[18] = tested on: HT29 colon
[19] = tested on: IGROV1 ovarian
[20] = tested on: K-562 leukemia
[21] = tested on: KM12 colon
[22] = tested on: LOX IMVI melanoma
[23] = tested on: M14 melanoma
[24] = tested on: MALME-3M melanoma
[25] = tested on: MCF7 breast
[26] = tested on: MDA-MB-231 breast
[27] = tested on: MDA-MB-435
[28] = tested on: MOLT-4 leukemia
[29] = tested on: NCI-H226 lung
[30] = tested on: NCI-H23 lung
[31] = tested on: NCI-H460 lung
[32] = tested on: NCI-H522 lung
[33] = tested on: NCI/ADR-RES ovarian
[34] = tested on: OVCAR-3 ovarian
[35] = tested on: OVCAR-4 ovarian
[36] = tested on: OVCAR-5 ovarian
[37] = tested on: OVCAR-8 ovarian
[38] = tested on: PC-3 prostate
[39] = tested on: RPMI-8226 leukemia
[40] = tested on: RXF 393 renal
[41] = tested on: SF-268 CNS
[42] = tested on: SF-295 CNS
[43] = tested on: SF-539 CNS
[44] = tested on: SK-MEL-2 melanoma
[45] = tested on: SK-MEL-28 melanoma
[46] = tested on: SK-MEL-5 melanoma
[47] = tested on: SK-OV-3 ovarian
[48] = tested on: SN12C renal
[49] = tested on: SNB-19 CNS
[50] = tested on: SNB-75 CNS
[51] = tested on: SR leukemia
[52] = tested on: SW-620 colon
[53] = tested on: T-47D breast
[54] = tested on: TK-10 renal
[55] = tested on: U251 CNS
[56] = tested on: UACC-257 melanoma
[57] = tested on: UACC-62 melanoma
[58] = tested on: UO-31 renal

CCOC(=O)c1ccc2c(c1)[n+](=O)c(C(=O)C1CCCS1)c(C(F)(F)F)n2[O-] (stereo unspecified)
GI50 [1]: 0.406 µM | TGI [1]: 1.46 µM | GI50 [2]: 1.55 µM | TGI [2]: 3.07 µM | GI50 [3]: 0.274 µM | TGI [3]: 0.764 µM | GI50 [4]: 0.172 µM | TGI [4]: 0.315 µM | GI50 [5]: 0.327 µM | TGI [5]: 1.08 µM | GI50 [6]: 0.189 µM | TGI [6]: 0.429 µM | GI50 [7]: 0.233 µM | TGI [7]: 0.55 µM | GI50 [8]: 0.217 µM | TGI [8]: 0.459 µM | GI50 [9]: 0.428 µM | TGI [9]: 1.05 µM | GI50 [10]: 1.19 µM | TGI [10]: 2.61 µM | GI50 [11]: 0.675 µM | TGI [11]: 2 µM | GI50 [12]: 0.173 µM | TGI [12]: 0.34 µM | GI50 [13]: 0.264 µM | TGI [13]: 0.824 µM | GI50 [14]: 0.258 µM | TGI [14]: 0.643 µM | GI50 [15]: 0.35 µM | TGI [15]: 0.82 µM | GI50 [16]: 0.208 µM | TGI [16]: 1.17 µM | GI50 [17]: 2.12 µM | TGI [17]: 6.35 µM | GI50 [18]: 0.172 µM | TGI [18]: 0.32 µM | GI50 [19]: 0.198 µM | TGI [19]: 0.417 µM | GI50 [20]: 0.197 µM | TGI [20]: 0.437 µM | GI50 [21]: 0.389 µM | TGI [21]: 0.975 µM | GI50 [22]: 0.161 µM | TGI [22]: 0.308 µM | GI50 [23]: 0.388 µM | TGI [23]: 1.12 µM | GI50 [24]: 0.581 µM | TGI [24]: 1.98 µM | GI50 [25]: 0.261 µM | TGI [25]: 0.738 µM | GI50 [26]: 0.49 µM | TGI [26]: 1.78 µM | GI50 [27]: 0.33 µM | TGI [27]: 0.987 µM | GI50 [28]: 0.237 µM | TGI [28]: 0.519 µM | GI50 [29]: 0.835 µM | TGI [29]: 2.65 µM | GI50 [30]: 0.83 µM | TGI [30]: 2.2 µM | GI50 [31]: 0.236 µM | TGI [31]: 0.588 µM | GI50 [32]: 0.187 µM | TGI [32]: 0.443 µM | GI50 [33]: 0.271 µM | TGI [33]: 0.797 µM | GI50 [34]: 0.275 µM | TGI [34]: 0.713 µM | GI50 [35]: 0.22 µM | TGI [35]: 0.534 µM | GI50 [36]: 1.42 µM | TGI [36]: 2.76 µM | GI50 [37]: 0.239 µM | TGI [37]: 0.597 µM | GI50 [38]: 0.248 µM | TGI [38]: 0.716 µM | GI50 [39]: 0.702 µM | TGI [39]: 2.08 µM | GI50 [40]: 0.603 µM | TGI [40]: 1.86 µM | GI50 [41]: 0.197 µM | TGI [41]: 0.458 µM | GI50 [42]: 0.749 µM | TGI [42]: 2.07 µM | GI50 [43]: 0.722 µM | TGI [43]: 2.04 µM | GI50 [44]: 1.6 µM | TGI [44]: 3.16 µM | GI50 [45]: 1.63 µM | TGI [45]: 3.01 µM | GI50 [46]: 0.964 µM | TGI [46]: 2.31 µM | GI50 [47]: 1.37 µM | TGI [47]: 2.67 µM | GI50 [48]: 0.448 µM | TGI [48]: 1.81 µM | GI50 [49]: 1.25 µM | TGI [49]: 2.57 µM | GI50 [50]: 1.13 µM | TGI [50]: 2.33 µM | GI50 [51]: 0.208 µM | TGI [51]: 0.428 µM | GI50 [52]: 0.202 µM | TGI [52]: 0.49 µM | GI50 [53]: 0.493 µM | TGI [53]: 1.92 µM | GI50 [54]: 0.288 µM | TGI [54]: 0.765 µM | GI50 [55]: 0.169 µM | TGI [55]: 0.315 µM | GI50 [56]: 0.474 µM | TGI [56]: 1.6 µM | GI50 [57]: 1.15 µM | TGI [57]: 2.45 µM | GI50 [58]: 0.156 µM | TGI [58]: 0.303 µM
